Among the data in US10092003B2, “Insect control device and associated methods” (Novel Textiles & Treatments LLC, priority 2014, dated 2018) are evaporation rate values, retold here.

This data set can be described thus: Transfluthrin evaporation / release rate from loaded fabric substrates (aging, acetone extraction, GC-MS). Format: physicochemical. The source says:
In some cases, release rates of the pyrethroids may range between about 0.1 milligrams per hour and about 3 milligrams per hour, as measured by gas chromatography mass spectroscopy (GC-MS). In some embodiments, the release rate may range between about 0.1 milligrams per hour and about 3 milligrams per hour, between about 0.5 milligrams per hour and about 3 milligrams per hour, or between about 1 milligrams per hour and about 3 milligrams per hour for an overall device of the invention, as measured by GC-MS. Other release rates are also possible. The release rate of the pyrethroid may be determined, for example, by immersing a loaded substrate in a suitable solvent (e.g., acetone) and sonicating. The substrate may then be rinsed and the solvent containing the released pyrethroid is collected. […]
Fabric samples comprised of cellulose or glass were prepared with Transfluthrin using either a wet application, or a wet application followed by a dry application, as described herein. […] The amount of Transfluthrin in the extracted sample was measured using a Restel Rtx®-5MS gas chromatography—mass spectrometry column. […] Evaporation rates, as determined by solvent extraction of Transfluthrin and followed by GC-MS as described previously, for cellulose fabric wet application and wet-and-dry application samples (Samples A and B in Table 1) are plotted in FIG. 3A and FIG. 3B, respectively. […]

For the compound `CC1(C)[C@H](C=C(Cl)Cl)[C@H]1C(=O)OCc1c(F)c(F)cc(F)c1F` [transfluthrin, Transfluthrin], the evaporation rate reads like this: (combination of particle size distributions on 5″×4″ square fabric of cellulose) 0.5 mg per 21 days; (on an equivalent 20″×20″ cellulose fabric) 10 mg per 21 days.
